Measurements: patent publication US20230358751A1, “METHODS FOR THE DETECTION AND TREATMENT OF PROSTATE CANCER” (Board of Regents, The University of Texas System, priority 2020, published 2023)
Like-named read-outs stand apart in the source and are kept apart here.

What was measured:
[1] = system: PC-3M prostate cancer cells
Method: (§1) Horizontal axis=log(M); vertical axis=% viability relative to control. […] (i) vehicle (ii) 128 μM Eliglustat (iii) 64 μM PDMP (iv) 64 μM PPMP. Statistical significance was determined by 2-sided student t-test comparing the aggregate intensities of individual lipid species corresponding to the respective lipid domain.
(§2) To test this hypothesis, the efficacy of PDMP, PPMP and eliglustat three different inhibitors of glucosylceramide synthase (also known as UGCG; UDP-glucose:ceramide glucosyltransferase), a rate-limiting enzyme in glycosphingolipid metabolism, for reducing viability of RM-9 and PC-3M prostate cancer cells in vitro was then evaluated.

[2] = system: RM-9 prostate cancer cells
Method: as §1, §2

[3] = system: RM-9 prostate cancer cells; assay: Lipidome alterations after short-term pharmacological inhibition of UGCG in RM-9 cells; assay type: cell-based, mouse; settings: 6 hr, 128 μM Eliglustat, 64 μM PDMP, 64 μM PPMP
From the text: (§3) FIGS. 16A, 16B, and 16C show (16A) the induction of autophagy/mitophagy by exposure of PC-3M prostate cancer cells to Eliglustat. (i) cytotoxicity (ii) apoptosis at 4 hrs (iii) apoptosis at 24 hrs. N=3 biologically independent replicates per experimental condition. Values represent log(relative fluorescence units)±StDev. Also shown are volcano plots illustrating differences in annotated lipid species stratified by lipid domains in (16B) PC-3M and (16C) RM-9 prostate cancer cells following 6 hr challenge with 128 μM Eliglustat. (i) acylcarnitines (ii) cardiolipins (iii) diacylglycerols (iv) ether lysophospholipids (v) ether phospholipids (vi) lysophospholipids (vii) phospholipids (viii) cholesterol esters (ix) triacylglycerols (x) sphingomyelins. N=3 biologically independent replicates per experimental condition.
(§4) Sample Extraction Following transfections, cell lysates were washed 2× with pre-chilled 0.9% NaCl followed by addition of 2.5 mL of pre-chilled 3:1 isopropanol:ultrapure water. Cells were scraped using a 25 cm Cell Scraper (Sarstedt) in extraction solvent and transferred to a 15 mL conical tube (Eppendorf). Samples were briefly vortexed followed by centrifugation at 4° C. for 10 min at 2,000×g. Thereafter, 1.2 mL of metabolite extracts were transferred to 1.5 mL Eppendorf tubes and stored in −20° C. until metabolomic analysis.
(§5) Complex Lipids Pre-aliquoted EDTA plasma samples (10 μL) were extracted with 30 μL of LCMS grade 2-propanol (ThermoFisher) in a 96-well microplate (Eppendorf). Plates were heat sealed, vortexed for 5 min at 750 rpm, and centrifuged at 2000×g for 10 minutes at room temperature. The supernatant (10 μL) was carefully transferred to a 96-well plate, leaving behind the precipitated protein. The supernatant was further diluted with 90 μL of 1:3:2 100 mM ammonium formate, pH 3 (ThermoFisher): acetonitrile: 2-propanol and transferred to a 384-well microplate (Eppendorf) for lipids analysis using LCMS. […]

[4] = system: PC-3M prostate cancer cells; assay: Lipidome alterations after short-term pharmacological inhibition of UGCG in PC-3M cells; assay type: cell-based, human; settings: 6 hr, 128 μM Eliglustat, 64 μM PDMP, 64 μM PPMP
From the text: as §3, §4, §5

[5] = system: PC-3M prostate cancer cells; assay: Cytotoxicity and apoptosis of PC-3M cells exposed to eliglustat; assay type: cell-based
Method: as §2

PC-3M cells [6] = assay: Mitophagy markers and mitochondrial morphology in PC-3M cells treated with eliglustat; assay type: cell-based, human
Method: FIGS. 17A, 17B, 17C, and 17D show representative confocal microscopy images for PC-3M cells following 24 hr pre-transfection with (i) CellLight Mitochondria-RFP (leader sequence of E1 alpha pyruvate dehydrogenase) or (ii) CellLight Lysosome-GFP (lysosomal associated 1052 membrane protein 1) followed by acute (6 hr) treatment with either (17A) vehicle or (17C) Eliglustat (128 μM). (17B) and (17D) correspond to enlargements of features from (17A) and (17C), respectively. (iii) merged images.

PC-3M cells [7] = assay: Viability (MTS assay) of PC-3M cells treated with eliglustat after CAV1 knockdown or Cav-1 blocking antibody; assay type: cell-based, human; settings: 128 μM eliglustat
Method: (§6) FIGS. 18A and 18B show (18A) the viability (MTS assay) of PC-3M cells treated with 128 μM eliglustat after (left) knockdown of CAV1: or (right) following pre-treatment with Cav-1 monoclonal blocking antibody: (i) siCtrl (ii) siCAV1-1 (iii) siCAV1-2 (iv) IgG=vehicle (v) IgG+Eliglustat (vi) abCAV1+Vehicle (vii) abCAV1+Eliglustat. (18B) Viability (MTS assay) of LNCaP cells treated with 64 μM eliglustat following Cav-1 overexpression.

LNCaP cells = assay: Viability (MTS assay) of LNCaP cells treated with eliglustat following Cav-1 overexpression; assay type: cell-based, human; settings: 64 μM eliglustat
Method: as §6

RM-9 tumors = assay: RM-9-luciferase subcutaneous tumor model in C57BL/6N mice; assay type: in vivo, mouse
Method: FIGS. 19A, 19B, 19C, and 19D show the efficacy of eliglustat in an in vivo mouse model. (19A) Relative fluorescence units±SEM of RM-9 tumors following daily intraperitoneal injection with either (i) saline (n=23) or (ii) eliglustat (60 mg/kg) (n=9). (19B) Tumor Volume±SEM following treatment with either saline (n=15) or eliglustat (60 mg/kg) (n=8). Statistical significance was determined by 2-sided Wilcoxon-rank sum test. (19C) Representative IVIS images following treatment. (19D) Relative abundance (area units±StDev) of glycosphinoglipids in RM-9 tumors following treatment.
FIGS. 20A, 20B, 20C, 20D, 20E, and 20F show quantitative analyses derived from immunohistochemistry staining for (20A) Cav-1, (20B) BrdU-TUNEL, (20C) PCNA, (20D) HMGB1 and (20E) LC3B in RM-9 tumors following treatment with either saline (n=6-8 mice) or eliglustat (n=7 mice). Vertical axes are (20A) Cav-1 staining score, (20B) apoptotic bodies/fd, (20C) % of PCNA labeling, (20D) % of cytoplasmic HMGB1, and (20E) LC-3B positive cells/fd. Statistical significance was determined by 2-sided Wilcoxon rank sum test. Also shown is (20F) volcano plot illustrating fold change in individual annotated lipid species stratified by lipid domain in plasma of RM-9 bearing C57BL/6N mice or control mice. (i) acylcarnitines (ii) ceramides (iii) cholesterol esters (iv) diacylglycerols (v) free fatty acids (vi) glycosphingolipids (vii) lysophospholipids (viii) oxylipins (ix) phospholipids (x) sphingomyelins (x) triacylglycerols.
Inhibition of tumor growth by eliglustat was next examined. RM-9 cells harbor driver oncogenic RAS and MYC genes which model RAS-MAPK pathway activation and MYC-driven transcriptional activities which are associated with aggressive primary prostate cancer. RM-9-luciferase cells were subcutaneously implanted into C57BL/6N mice. RM-9 tumor growth was suppressed by eliglustat (FIGS. 19A, 19B, and 19C). […] In addition, plasma Cav-1 levels tended to be elevated in RM-9 tumor-bearing mice compared to control mice.

[8] = immunohistochemistry, RM-9 tumors

| SMILES | cytotoxicity (viability relative to control) [1] | cytotoxicity (viability relative to control) [2] | alterations in the lipidome [3] | alterations in the lipidome [4] | cytotoxicity (viability relative to control) ([1]; PC-3M cells, 48 hour treatment) | cytotoxicity (viability relative to control) ([2]; RM-9 cells, 48 hour treatment) | mechanism of acute cytotoxic effects (cytotoxicity, apoptosis at 4 hrs and 24 hrs) [5] | protein expression of mitophagy-associated marker LC3B-II (PC-3M cells [6]) | protein expression of Parkin and PINK1 (PC-3M cells [6]; acute (6 hr) treatment) | mitochondrial morphology (PC-3M cells [6]; acute (6 hr) treatment, 128 μM) | sensitivity to eliglustat (viability, MTS) after knockdown of CAV1 (PC-3M cells [7]) | anti-cancer effect (viability, MTS) following Cav-1 overexpression (LNCaP cells) | RM-9 tumor growth (RM-9 tumors; C57BL/6N mice, 60 mg/kg daily intraperitoneal injection) | glycosphingolipids in RM-9 tumor tissue (RM-9 tumors; C57BL/6N mice, 60 mg/kg, metabolomics of tumor tissue) | BrdU-TUNEL staining in tumor tissue (RM-9 tumors; [8]) | Cav-1 staining in tumor tissue (RM-9 tumors; [8]) | HMGB1 staining in tumor tissue (RM-9 tumors; [8]) | LC3B staining in tumor tissue (RM-9 tumors; [8]) | PCNA staining in tumor tissue (RM-9 tumors; [8]) |
| --- | --- | --- | --- | --- | --- | --- | --- | --- | --- | --- | --- | --- | --- | --- | --- | --- | --- | --- | --- |
| CCCCCCCCCC(=O)NC(CN1CCOCC1)C(O)c1ccccc1 (stereo not shown) [PDMP, 1-phenyl-2-decanoylamino-3-morpholino-1-propanol] | dose-dependent cytotoxicity | dose-dependent cytotoxicity | accumulation of intracellular ceramides, acylcarnitines, lysophospholipids and diacylglycerols and reductions in glycosphingolipids, phospholipids and triacylglycerols | accumulation of intracellular ceramides, acylcarnitines, lysophospholipids and diacylglycerols and reductions in glycosphingolipids, phospholipids and triacylglycerols |  |  |  |  |  |  |  |  |  |  |  |  |  |  |  |
| CCCCCCCCCCCCCCCC(=O)N[C@H](CN1CCOCC1)[C@H](O)c1ccccc1 [PPMP, D-threo-1-phenyl-2-hexadecanoylamino-3-morpholino-1-propanol] | dose-dependent cytotoxicity | dose-dependent cytotoxicity | accumulation of intracellular ceramides, acylcarnitines, lysophospholipids and diacylglycerols and reductions in glycosphingolipids, phospholipids and triacylglycerols | accumulation of intracellular ceramides, acylcarnitines, lysophospholipids and diacylglycerols and reductions in glycosphingolipids, phospholipids and triacylglycerols |  |  |  |  |  |  |  |  |  |  |  |  |  |  |  |
| CCCCCCCC(=O)N[C@H](CN1CCCC1)[C@H](O)c1ccc2c(c1)OCCO2 [eliglustat] |  |  | accumulation of intracellular ceramides, acylcarnitines, lysophospholipids and diacylglycerols and reductions in glycosphingolipids, phospholipids and triacylglycerols | accumulation of intracellular ceramides, acylcarnitines, lysophospholipids and diacylglycerols and reductions in glycosphingolipids, phospholipids and triacylglycerols | dose-dependent cytotoxicity | dose-dependent cytotoxicity | non-apoptotic mechanism | increased | increased | loss of the branched, fused-like-mitochondrial architecture and accumulation of punctate mitochondria co-localized with the lysosome | further sensitized | reduced the anti-cancer effects | suppressed | reductions in glycosphingolipids | statistically significantly increased | statistically significantly reduced | statistically significantly increased | statistically significantly increased | statistically significantly reduced |
